Assay results from PubChem BioAssay (NCI).
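Test compounds were applied to cells in 96-well plates for 48 hours at 5 doses. Here, GI50 denotes the concentration required for 50% inhibition of growth. The concentration for full growth arrest is given as TGI.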

How the values were obtained:
Assay in all cases: NCI tumour cell line growth inhibition, 48 h
[1] = test system: HOP-62 NSCLC
[2] = test system: MCF7 breast
[3] = test system: U251 CNS
[4] = test system: LOX IMVI melanoma
[5] = test system: K-562 leukemia
[6] = test system: SNB-19 CNS
[7] = test system: OVCAR-3 ovarian
[8] = test system: NCI-H226 lung
[9] = test system: UACC-257 melanoma
[10] = test system: IGROV1 ovarian
[11] = test system: HCC-2998 colon
[12] = test system: T-47D breast
[13] = test system: SF-539 CNS
[14] = test system: RPMI-8226 leukemia
[15] = test system: SF-268 CNS
[16] = test system: HCT-15 colon
[17] = test system: SK-MEL-5 melanoma
[18] = test system: NCI-H522 lung
[19] = test system: UO-31 renal
[20] = test system: SF-295 CNS
[21] = test system: SK-OV-3 ovarian
[22] = test system: OVCAR-4 ovarian
[23] = test system: MDA-MB-468 breast
[24] = test system: OVCAR-8 ovarian
[25] = test system: MDA-MB-231 breast
[26] = test system: M14 melanoma
[27] = test system: MDA-MB-435
[28] = test system: SR leukemia
[29] = test system: HS 578T breast
[30] = test system: NCI-H460 lung
[31] = test system: KM12 colon
[32] = test system: HCT-116 colon
[33] = test system: RXF 393 renal
[34] = test system: DU-145 prostate
[35] = test system: SW-620 colon
[36] = test system: TK-10 renal
[37] = test system: CCRF-CEM leukemia
[38] = test system: PC-3 prostate
[39] = test system: MALME-3M melanoma
[40] = test system: HOP-92 NSCLC
[41] = test system: SK-MEL-28 melanoma
[42] = test system: A498 renal
[43] = test system: NCI/ADR-RES ovarian
[44] = test system: HT29 colon
[45] = test system: BT-549 breast
[46] = test system: SN12C renal
[47] = test system: CAKI-1 renal
[48] = test system: 786-0 renal
[49] = test system: A549 NSCLC
[50] = test system: UACC-62 melanoma
[51] = test system: HL-60(TB) leukemia
[52] = test system: ACHN renal
[53] = test system: OVCAR-5 ovarian
[54] = test system: EKVX NSCLC
[55] = test system: SNB-75 CNS
[56] = test system: NCI-H23 lung
[57] = test system: SK-MEL-2 melanoma
[58] = test system: MOLT-4 leukemia
[59] = test system: COLO 205 colon

`O=c1[nH]c2ccccc2cc1CSc1ccc(Nc2nccc(-c3ccc(Cl)cc3)n2)cc1` was tested. Which GI50 [1] did it give?
Its GI50 is 1720 nM.

What about the TGI [1] of the same compound?
The TGI was 3450 nM.

What about the GI50 [2] of the same compound?
The GI50 was 2590 nM.

And the TGI [2]?
Its TGI is 15900 nM.

And the GI50 [3]?
Its GI50 is 368 nM.

And the TGI [3]?
The TGI was 1440 nM.

And the GI50 [4]?
Its GI50 is 1830 nM.

And the TGI [4]?
Its TGI is 5240 nM.

What about the GI50 [5] of the same compound?
The GI50 was 2570 nM.

And the TGI [5]?
The TGI was 18300 nM.

And the GI50 [6]?
Its GI50 is 1180 nM.

What about the TGI [6] of the same compound?
The TGI was 2580 nM.

And the GI50 [7]?
Its GI50 is 945 nM.

And the TGI [7]?
Its TGI is 2460 nM.

And the GI50 [8]?
The GI50 was 1300 nM.

What about the TGI [8] of the same compound?
The TGI was 2880 nM.

And the GI50 [9]?
The GI50 was 13300 nM.

And the TGI [9]?
Its TGI is 79500 nM.

And the GI50 [10]?
The GI50 was 3710 nM.

And the TGI [10]?
Its TGI is 14300 nM.

What about the GI50 [11] of the same compound?
The GI50 was 4050 nM.

And the TGI [11]?
The TGI was 25300 nM.

And the GI50 [12]?
Its GI50 is 2240 nM.

What about the TGI [12] of the same compound?
Its TGI is 8070 nM.

And the GI50 [13]?
The GI50 was 1660 nM.

What about the TGI [13] of the same compound?
The TGI was 3400 nM.

What about the GI50 [14] of the same compound?
Its GI50 is 2410 nM.

What about the TGI [14] of the same compound?
Its TGI is 21500 nM.

What about the GI50 [15] of the same compound?
The GI50 was 1070 nM.

And the TGI [15]?
Its TGI is 4970 nM.

What about the GI50 [16] of the same compound?
Its GI50 is 1020 nM.

And the TGI [16]?
Its TGI is 15200 nM.

What about the GI50 [17] of the same compound?
The GI50 was 2490 nM.

And the TGI [17]?
The TGI was 9560 nM.

And the GI50 [18]?
The GI50 was 2170 nM.

And the TGI [18]?
Its TGI is 6790 nM.

What about the GI50 [19] of the same compound?
Its GI50 is 1830 nM.

And the TGI [19]?
Its TGI is 4030 nM.

And the GI50 [20]?
Its GI50 is 776 nM.

What about the TGI [20] of the same compound?
The TGI was 2140 nM.

And the GI50 [21]?
Its GI50 is 2260 nM.

And the TGI [21]?
The TGI was 5490 nM.

And the GI50 [22]?
The GI50 was 334 nM.

And the TGI [22]?
Its TGI is 1260 nM.

What about the GI50 [23] of the same compound?
The GI50 was 1150 nM.

And the TGI [23]?
The TGI was 3140 nM.

And the GI50 [24]?
Its GI50 is 1600 nM.

What about the TGI [24] of the same compound?
The TGI was 3500 nM.

What about the GI50 [25] of the same compound?
Its GI50 is 1260 nM.

And the TGI [25]?
Its TGI is 3040 nM.

What about the GI50 [26] of the same compound?
Its GI50 is 4900 nM.

And the TGI [26]?
The TGI was 30900 nM.

What about the GI50 [27] of the same compound?
Its GI50 is 2750 nM.

And the TGI [27]?
Its TGI is 13100 nM.

What about the GI50 [28] of the same compound?
Its GI50 is 6370 nM.

And the TGI [28]?
Its TGI is 29700 nM.

What about the GI50 [29] of the same compound?
Its GI50 is 621 nM.

What about the TGI [29] of the same compound?
Its TGI is 3450 nM.

And the GI50 [30]?
Its GI50 is 383 nM.

What about the TGI [30] of the same compound?
Its TGI is 1420 nM.

And the GI50 [31]?
The GI50 was 11000 nM.

What about the TGI [31] of the same compound?
Its TGI is greater than 100000 nM.

And the GI50 [32]?
The GI50 was 644 nM.

And the TGI [32]?
Its TGI is 3650 nM.

And the GI50 [33]?
Its GI50 is 1700 nM.

And the TGI [33]?
Its TGI is 4420 nM.

And the GI50 [34]?
The GI50 was 1520 nM.

What about the TGI [34] of the same compound?
The TGI was 9160 nM.

And the GI50 [35]?
The GI50 was 1540 nM.

What about the TGI [35] of the same compound?
The TGI was 13400 nM.

And the GI50 [36]?
Its GI50 is 1650 nM.

What about the TGI [36] of the same compound?
Its TGI is 3340 nM.

What about the GI50 [37] of the same compound?
The GI50 was 2930 nM.

What about the TGI [37] of the same compound?
The TGI was 23200 nM.

What about the GI50 [38] of the same compound?
The GI50 was 1830 nM.

What about the TGI [38] of the same compound?
The TGI was 6280 nM.

What about the GI50 [39] of the same compound?
Its GI50 is 1810 nM.

What about the TGI [39] of the same compound?
The TGI was 6090 nM.

What about the GI50 [40] of the same compound?
The GI50 was 1110 nM.

And the TGI [40]?
Its TGI is 2800 nM.

And the GI50 [41]?
The GI50 was 4450 nM.

What about the TGI [41] of the same compound?
Its TGI is 23600 nM.

And the GI50 [42]?
The GI50 was 1230 nM.

What about the TGI [42] of the same compound?
The TGI was 2600 nM.

What about the GI50 [43] of the same compound?
Its GI50 is 1130 nM.

What about the TGI [43] of the same compound?
Its TGI is 3320 nM.

And the GI50 [44]?
Its GI50 is 917 nM.

What about the TGI [44] of the same compound?
The TGI was 5520 nM.

And the GI50 [45]?
Its GI50 is 2160 nM.

What about the TGI [45] of the same compound?
Its TGI is 6980 nM.

And the GI50 [46]?
The GI50 was 1990 nM.

What about the TGI [46] of the same compound?
The TGI was 4470 nM.

And the GI50 [47]?
Its GI50 is 1170 nM.

What about the TGI [47] of the same compound?
The TGI was 2730 nM.

And the GI50 [48]?
The GI50 was 1160 nM.

What about the TGI [48] of the same compound?
The TGI was 2550 nM.

And the GI50 [49]?
Its GI50 is 1460 nM.

What about the TGI [49] of the same compound?
The TGI was 3500 nM.

And the GI50 [50]?
The GI50 was 3920 nM.

What about the TGI [50] of the same compound?
The TGI was 15200 nM.

What about the GI50 [51] of the same compound?
Its GI50 is 43200 nM.

And the TGI [51]?
The TGI was greater than 100000 nM.

What about the GI50 [52] of the same compound?
The GI50 was 744 nM.

And the TGI [52]?
Its TGI is 2180 nM.

And the GI50 [53]?
Its GI50 is 2470 nM.

What about the TGI [53] of the same compound?
The TGI was 11200 nM.

And the GI50 [54]?
The GI50 was 1420 nM.

What about the TGI [54] of the same compound?
Its TGI is 4770 nM.

And the GI50 [55]?
The GI50 was 245 nM.

And the TGI [55]?
The TGI was 1420 nM.

What about the GI50 [56] of the same compound?
Its GI50 is 1660 nM.

What about the TGI [56] of the same compound?
The TGI was 4850 nM.

What about the GI50 [57] of the same compound?
The GI50 was 12900 nM.

And the TGI [57]?
Its TGI is 26200 nM.

And the GI50 [58]?
The GI50 was 3780 nM.

And the TGI [58]?
Its TGI is 56900 nM.

What about the GI50 [59] of the same compound?
Its GI50 is 2640 nM.

And the TGI [59]?
Its TGI is 25000 nM.
